Drawing on PubChem BioAssay (NCI), this text covers GI50 and TGI for twelve molecules.

Among the test systems are TK-10 renal; HOP-62 NSCLC; SNB-19 CNS; SF-539 CNS; CCRF-CEM leukemia; SK-MEL-5 melanoma; NCI-H522 lung; KM12 colon; MALME-3M melanoma; OVCAR-5 ovarian.
Common to all, as to assay: NCI-60 cell line screen, 48 h

Each structure is given as a SMILES string.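 Compound exposure: 48 hours, 5 concentrations, 96-well plates. Here, GI50 denotes the concentration required for 50% inhibition of growth. The concentration for full growth arrest is given as TGI.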

For the molecule `Cc1ccc(C(=O)CC(Sc2cccc(Cl)c2Cl)c2ccc(Cl)cc2)cc1C` (centres undefined), the GI50 in the experiment with TK-10 renal was 17.2 µM; in the experiment with HOP-62 NSCLC, 24.2 µM; in the experiment with SNB-19 CNS it was 27.5 µM; with SF-539 CNS, 22.8 µM; in the experiment on CCRF-CEM leukemia it was 18.7 µM; with SK-MEL-5 melanoma, 16.6 µM. In addition, the GI50 was 26.2 µM in the experiment with NCI-H522 lung, 15.4 µM with KM12 colon, 15.5 µM with MALME-3M melanoma and 22.4 µM in the experiment with OVCAR-5 ovarian. The TGI in the experiment with TK-10 renal is 35 µM; with HOP-62 NSCLC, 60.6 µM; in the experiment on SNB-19 CNS, 78.8 µM; with SF-539 CNS it was 53.6 µM; with CCRF-CEM leukemia, 94.4 µM; in the experiment with SK-MEL-5 melanoma, 33 µM. Further, the TGI with NCI-H522 lung stood at 61.9 µM; in the experiment with KM12 colon it was 34.1 µM; in the experiment with MALME-3M melanoma, 39.9 µM; in the experiment with OVCAR-5 ovarian, 59.8 µM.
Take `COc1ccc2c(c1)[C@@]13CCN4CC5=CCO[C@H]6CC(=O)N2[C@H]1[C@H]6[C@H]5C[C@H]43`: the TGI with TK-10 renal, with HOP-62 NSCLC, in the experiment on SNB-19 CNS, in the experiment on SF-539 CNS, with CCRF-CEM leukemia and in the experiment with SK-MEL-5 melanoma was > 100 µM each time. Besides, the TGI in the experiment on NCI-H522 lung, with KM12 colon, in the experiment with MALME-3M melanoma and with OVCAR-5 ovarian was > 100 µM each time.
Consider `COc1cc2c3c(n(CCCN4CCC(N)CC4)c(=O)c2cc1OC)-c1cc2c(cc1C3=O)OCO2`, for which the GI50 in the experiment on TK-10 renal is 0.774 µM; in the experiment on HOP-62 NSCLC it was 0.423 µM; with SNB-19 CNS, 1.46 µM; with SF-539 CNS it was 0.254 µM; in the experiment with CCRF-CEM leukemia, 0.129 µM; in the experiment on SK-MEL-5 melanoma, 1.84 µM. In addition, the GI50 in the experiment on NCI-H522 lung was 3.4 µM; in the experiment with KM12 colon, 0.619 µM; with MALME-3M melanoma, 2.09 µM; in the experiment with OVCAR-5 ovarian it was 1.45 µM. Besides, the TGI in the experiment with TK-10 renal came to 4.36 µM; in the experiment on HOP-62 NSCLC, 1.11 µM; in the experiment with SNB-19 CNS it was 8.7 µM; with SF-539 CNS, 0.863 µM; with CCRF-CEM leukemia, 0.681 µM; in the experiment with SK-MEL-5 melanoma, 8.47 µM. The TGI amounted to 21.7 µM in the experiment on NCI-H522 lung, 1.59 µM with KM12 colon, 9.89 µM in the experiment on MALME-3M melanoma and 5.15 µM in the experiment on OVCAR-5 ovarian.
For `Cc1ccc2/c(=C/c3ccc(N(C)C)cc3)c3cc(-c4ccccc4)[n+](C)n3c2c1`, the GI50 with TK-10 renal is 0.266 µM; in the experiment on HOP-62 NSCLC, 0.257 µM; in the experiment on SNB-19 CNS, 0.0969 µM; in the experiment with SF-539 CNS, 0.0456 µM; in the experiment on CCRF-CEM leukemia, 0.0269 µM; in the experiment with SK-MEL-5 melanoma it was 0.0344 µM. The GI50 in the experiment on NCI-H522 lung is 0.0547 µM; in the experiment on KM12 colon, 0.0209 µM; with MALME-3M melanoma it was 0.0285 µM; in the experiment on OVCAR-5 ovarian it was 0.456 µM. For the same molecule, the TGI is 2.36 µM with TK-10 renal; 7.33 µM in the experiment with HOP-62 NSCLC; > 44.1 µM in the experiment with SNB-19 CNS; 2.21 µM in the experiment on SF-539 CNS; 0.169 µM in the experiment on SK-MEL-5 melanoma; > 100 µM in the experiment on NCI-H522 lung. The TGI is 0.12 µM in the experiment on KM12 colon, 1.17 µM with MALME-3M melanoma and 4.74 µM in the experiment with OVCAR-5 ovarian.
For `Clc1ccc(OCc2nnc3n2N=C(c2ccc(Cl)cc2Cl)CS3)c(Cl)c1`, the GI50 was 25.1 µM with TK-10 renal; 27.8 µM in the experiment on HOP-62 NSCLC; 34.3 µM in the experiment with SNB-19 CNS; 18.7 µM in the experiment on SF-539 CNS; 22.3 µM in the experiment with CCRF-CEM leukemia; 15.5 µM with SK-MEL-5 melanoma. The GI50 in the experiment with NCI-H522 lung was 14.5 µM; in the experiment on KM12 colon, 25.5 µM; with MALME-3M melanoma, 23.8 µM; in the experiment with OVCAR-5 ovarian, 31.4 µM. Further, the TGI in the experiment on TK-10 renal was > 100 µM; with HOP-62 NSCLC it was 78.6 µM; with SNB-19 CNS, > 100 µM; in the experiment with SF-539 CNS, 38.7 µM; in the experiment with CCRF-CEM leukemia it was 89.7 µM; in the experiment on SK-MEL-5 melanoma it was 33 µM. Besides, the TGI in the experiment on NCI-H522 lung is 37.6 µM; with KM12 colon it was > 100 µM; with MALME-3M melanoma it was 79.7 µM; in the experiment on OVCAR-5 ovarian, > 100 µM.
Regarding `CCN(CCO)CCNc1ccc(C)c2sc3cc(Cl)ccc3c(=O)c12`, the GI50 with TK-10 renal was 1.8 µM; in the experiment on HOP-62 NSCLC, 1.5 µM; with SNB-19 CNS, 1.58 µM; in the experiment with SF-539 CNS it was 1.73 µM; with CCRF-CEM leukemia, 1.52 µM; in the experiment with SK-MEL-5 melanoma, 1.54 µM. Moreover, the GI50 in the experiment on NCI-H522 lung is 1.56 µM; in the experiment on KM12 colon, 1.67 µM; in the experiment on MALME-3M melanoma it was 1.86 µM; in the experiment on OVCAR-5 ovarian, 1.59 µM. Also, the TGI turned out to be 3.31 µM in the experiment with TK-10 renal; 2.95 µM in the experiment on HOP-62 NSCLC; 3.17 µM in the experiment on SNB-19 CNS; 3.43 µM in the experiment with SF-539 CNS; 3.46 µM in the experiment with CCRF-CEM leukemia; 2.88 µM with SK-MEL-5 melanoma. Further, the TGI with NCI-H522 lung turned out to be 3.21 µM; with KM12 colon it was 3.36 µM; with MALME-3M melanoma it was 3.51 µM; with OVCAR-5 ovarian, 3.3 µM.
For `CC(C)(C)c1nc2c(o1)C(=Nc1ccc(F)cc1)c1ccccc1C2=O`, the TGI is 68.3 µM with TK-10 renal; 32.4 µM with HOP-62 NSCLC; 26.6 µM in the experiment with SNB-19 CNS; 14.2 µM in the experiment on SF-539 CNS; > 100 µM in the experiment with CCRF-CEM leukemia; 3.45 µM in the experiment with SK-MEL-5 melanoma. In addition, the TGI was 20.5 µM in the experiment with NCI-H522 lung, 52.5 µM in the experiment on KM12 colon, 4.45 µM with MALME-3M melanoma and 34.3 µM with OVCAR-5 ovarian.
In the case of `NCCN1CCN(c2nccc(-c3ccc4ccccc4c3)n2)CC1`, the GI50 is 1.78 µM with TK-10 renal; 1.76 µM in the experiment on HOP-62 NSCLC; 2.26 µM in the experiment with SNB-19 CNS; 1.79 µM in the experiment with SF-539 CNS; 1.85 µM in the experiment on CCRF-CEM leukemia; 1.67 µM with SK-MEL-5 melanoma. Besides, the GI50 in the experiment with NCI-H522 lung was 1.97 µM; with KM12 colon, 1.85 µM; with MALME-3M melanoma, 1.83 µM; in the experiment with OVCAR-5 ovarian, 1.85 µM. In addition, the TGI in the experiment on TK-10 renal is 3.27 µM; with HOP-62 NSCLC, 3.28 µM; with SNB-19 CNS it was 5.98 µM; in the experiment with SF-539 CNS, 3.28 µM; in the experiment on CCRF-CEM leukemia, 4.37 µM; in the experiment with SK-MEL-5 melanoma, 3.05 µM. For the same molecule, the TGI in the experiment with NCI-H522 lung stood at 3.84 µM; in the experiment on KM12 colon it was 3.48 µM; with MALME-3M melanoma it was 3.52 µM; with OVCAR-5 ovarian it was 4.04 µM.
With `CC(C)(C)C1(O)Cc2ccccc2C(=O)O1` (centres undefined), the TGI in the experiment on TK-10 renal, with HOP-62 NSCLC, in the experiment with SNB-19 CNS, with SF-539 CNS, in the experiment with CCRF-CEM leukemia and in the experiment with SK-MEL-5 melanoma was > 100 µM each time. Further, the TGI with NCI-H522 lung, in the experiment with KM12 colon, in the experiment with MALME-3M melanoma and in the experiment on OVCAR-5 ovarian was > 100 µM throughout.
On to `Cc1ncc(NC(=O)c2ccc(CN3CCN(C)CC3)c(C(F)(F)F)c2)cc1Nc1nccc(-c2cccnc2)n1`, for which the GI50 in the experiment on TK-10 renal is 21.6 µM; in the experiment with HOP-62 NSCLC, 15.7 µM; with SNB-19 CNS, 18 µM; in the experiment on SF-539 CNS, 11.8 µM; in the experiment on CCRF-CEM leukemia it was 14.4 µM; with SK-MEL-5 melanoma, 16.3 µM. Also, the GI50 in the experiment on NCI-H522 lung is 17.2 µM; in the experiment on KM12 colon, 15.3 µM; in the experiment on MALME-3M melanoma it was 0.582 µM; in the experiment on OVCAR-5 ovarian, 15.8 µM. Besides, the TGI in the experiment on TK-10 renal was 39.1 µM; in the experiment on HOP-62 NSCLC it was 30.5 µM; with SNB-19 CNS, 32.1 µM; with SF-539 CNS, 24.4 µM; in the experiment on CCRF-CEM leukemia, 91.9 µM; with SK-MEL-5 melanoma, 30.2 µM. Also, the TGI worked out at 33.8 µM in the experiment on NCI-H522 lung, 30.2 µM in the experiment with KM12 colon, 14.4 µM with MALME-3M melanoma and 29.7 µM in the experiment on OVCAR-5 ovarian.
For `C=C(C)[C@@H]1CC[C@@]2(C(=O)O)CC[C@]3(C)C(CCC4[C@@]5(C)CCC(OS(=O)(=O)c6ccccc6)C(C)(C)C5CC[C@]43C)C12` (some centres undefined), the GI50 with TK-10 renal was 3.84 µM; with HOP-62 NSCLC, 5.15 µM; with SNB-19 CNS, 10.1 µM; in the experiment on SF-539 CNS, 9.93 µM; in the experiment on CCRF-CEM leukemia, 5.28 µM; in the experiment with SK-MEL-5 melanoma, 1.4 µM. Moreover, the GI50 in the experiment with NCI-H522 lung is 2.36 µM; in the experiment with KM12 colon it was 3.37 µM; in the experiment with MALME-3M melanoma it was 12.2 µM; with OVCAR-5 ovarian, 9.44 µM. Further, the TGI is 25.4 µM in the experiment with TK-10 renal; 18.5 µM with HOP-62 NSCLC; 32.7 µM in the experiment with SNB-19 CNS; 22.4 µM in the experiment with SF-539 CNS; > 100 µM in the experiment with CCRF-CEM leukemia; 17 µM in the experiment on SK-MEL-5 melanoma. The TGI with NCI-H522 lung turned out to be 13.2 µM; in the experiment with KM12 colon it was 15 µM; in the experiment with MALME-3M melanoma, 26 µM; in the experiment with OVCAR-5 ovarian it was 28.7 µM.
As to `COc1ccc(C2C(N)=NCC2c2ccccn2)cc1` (centres undefined), the TGI in the experiment on TK-10 renal, with HOP-62 NSCLC, with SNB-19 CNS, in the experiment on SF-539 CNS, with CCRF-CEM leukemia and in the experiment on SK-MEL-5 melanoma was > 100 µM each time. For the same molecule, the TGI with NCI-H522 lung, with KM12 colon, in the experiment on MALME-3M melanoma and with OVCAR-5 ovarian was > 100 µM in each case.
